Test system: IL1-β release upon NLRP3 activation in peripheral blood mononuclear cells (PBMC)
Assay: PBMC IC50 determination assay (IL1-β release, ELISA)
Assay type: cell-based
Conditions: Homo sapiens, PBMC, read-out: PBMCs, IC50, µM
Protocol: PBMC IC50 determination assay
The compounds of the present invention were tested for their inhibitory activity against IL1-β release upon NLRP3 activation in peripheral blood mononuclear cells (PBMC).
PBMC were isolated from buffy coats by density gradient centrifugation on Histopaque-1077 (Sigma, cat no. 10771). Isolated cells were seeded into the wells of a 96-well plate and incubated for 3 h with lipopolysaccharide (LPS). Following medium exchange, the compounds of the present invention were added (a single compound per well) and the cells were incubated for 30 min. Next, the cells were stimulated with nigericin (10 µM) for 1 h and the cell culture media from the wells were collected for further analysis.
The release of IL1-β into the media was determined by a quantitative detection of IL1-β in the media using an IL-1β enzyme-linked immunosorbent assay (ELISA) Ready-SET-Go!, eBioscience cat. No. 88-7261-88. Briefly, in a first step, high affinity binding plates (Coming, Costar 9018 or NUNC Maxisorp Cat No. 44-2404) were coated overnight at 4°C with specific capture antibody included in the kit (anti-human IL-1β ref. 14-7018-68). Subsequently, plates were blocked with blocking buffer for 1 h at room temperature (rt) and after washing with a buffer (PBS with 0,05% Tween-20) incubated with protein standard and culture media. After 2 h of incubation at rt, plates were washed and incubated with biotinylated detection antibody included in the kit (anti-human IL-1β Biotin ref. 33-7110-68) for 1 h at rt. Plates were washed and incubated with HRP-streptavidin for 30 min at rt and washed again. The signal was developed after addition of 3,39,5,59-tetramethylbenzidine-peroxidase (TMB) until color appeared and the reaction was stopped by 2 N H2SO4. A microplate spectrophotometer (BioTek) was used to detect signals with […]. The detection range of IL1-β ELISA was […].

Row | SMILES | IC50 [µM]
1 | O=C(Nc1c2c(cc3c1CCC3)CCC2)NS(=O)(=O)n1ccc2ccccc21 [Example 1A] | 1.05
2 | CC(=O)c1ccn(S(=O)(=O)NC(=O)Nc2c3c(cc4c2CCC4)CCC3)c1 [Example 1B] | 1.27
3 | COC(=O)c1ccn(S(=O)(=O)NC(=O)Nc2c3c(cc4c2CCC4)CCC3)c1 [Example 1C] | 4.07
4 | O=C(Nc1c2c(cc3c1CCC3)CCC2)NS(=O)(=O)n1ccc2ncccc21 [Example 1D] | 10.5
5 | O=C(Nc1c2c(cc3c1CCC3)CCC2)NS(=O)(=O)n1ncc2ccccc21 [Example 1E] | 1
6 | O=C(Nc1c2c(cc3c1CCC3)CCC2)NS(=O)(=O)n1ccc(C2CC2)c1 [Example 1F] | 0.4
7 | CCC(=O)c1ccn(S(=O)(=O)NC(=O)Nc2c3c(cc4c2CCC4)CCC3)c1 [Example 1G] | 5
8 | O=C(Nc1c2c(cc3c1CCC3)CCC2)NS(=O)(=O)n1ccc2ccncc21 [Example 1H] | 4.93
9 | CC(=O)c1ccn(S(=O)(=O)NC(=O)Nc2c3c(c(Cl)c4c2CCC4)CCC3)c1 [Example 1I] | 0.91
10 | O=C(Nc1c2c(cc3c1CCC3)CCC2)NS(=O)(=O)n1ccc([N+](=O)[O-])c1 [Example 1J] | 26.8
11 | O=C(Nc1c2c(cc3c1CCC3)CCC2)NS(=O)(=O)n1cccc1 [Example 1K] | 1.4
12 | O=C(Nc1c2c(cc3c1CCC3)CCC2)NS(=O)(=O)n1ccc(C(=O)C(F)(F)F)c1 [Example 1L] | 0.074
13 | O=C(Nc1c2c(cc3c1CCC3)CCCC2)NS(=O)(=O)n1ncc2ccccc21 [Example 1M] | 4.62
14 | O=C(Nc1cc2c(c3c1CCCC3)CCC2)NS(=O)(=O)n1ncc2ccccc21 [Example 1N, 3-{1H,2H,3H,6H,7H,8H,9H -cyclopenta[a]naphthalen-5-yl}-1-(H-indazole-1-sulfonyl)-1-sodiourea] | 2.03
15 | O=C(Nc1c2c(cc3c1CCC3)CCC2)NS(=O)(=O)n1cc2c(c1)C(=O)CC2 [Example 1O] | 4.13
16 | O=C(Nc1c2c(cc3c1CCC3)CCC2)NS(=O)(=O)n1ccc(C(=O)c2ccccc2)c1 [Example 1P] | 2.91
17 | O=C(Nc1cc2c(c3c1CCC3)CCC2)NS(=O)(=O)n1ccc(C(=O)C(F)(F)F)c1 [Example 1Q] | 0.33
18 | CC(=O)c1cn(S(=O)(=O)NC(=O)Nc2c3c(cc4c2CCC4)CCC3)cc1-c1ccccc1 [Example 1T, 3=[(3-acetyl-4-phenyl-1H-pyrrol-1-yl)sulfonyl]-1-(1,2,3,5,6,7-hexahydro-s-indacen-4-yl)-3-sodiourea propan-2-ol solvate] | 4.76
19 | CC(C)(O)c1ccn(S(=O)(=O)NC(=O)Nc2c3c(cc4c2CCC4)CCC3)c1 [Example 3A] | 0.66

Same assay, conditions: Homo sapiens; PBMC primed 3 h with LPS, compound 30 min, nigericin (10 µM) 1 h; IL1-β in media by ELISA; values with * are mean values based on 2-6 measurements, all others single measurements; read-out: PBMCs, IC50

Row | SMILES | IC50 [µM]
20 | O=C(Nc1c2c(cc3c1CCC3)CCC2)NS(=O)(=O)n1cc2c(c1)C(=O)CCC2 [Example 1R, ammonium [(1,2,3,5,6,7-hexahydro-s-indacen-4-yl)carbamoyl][(4-oxo-4,5,6,7-tetrahydro-2H-isoindol-2-yl)sulfonyl]azanide] | 1.27
21 | Cc1cccn1S(=O)(=O)NC(=O)Nc1c2c(cc3c1CCC3)CCC2 [Example 1S, ammonium [(1,2,3,5,6,7-hexahydro-s-indacen-4-yl)carbamoyl][(2-methyl-1H-pyrrol-1-yl)sulfonyl]azanide] | 0.27
22 | O=C(Nc1cc2c(c3c1CCC3)CCC2=O)NS(=O)(=O)n1ccc(C(=O)C(F)(F)F)c1 [Example 1U, ammonium [(6-oxo-1,2,3,6,7,8-hexahydroas-indacen-4-yl)carbamoyl]({[3-(trifluoroacetyl)-1H-pyrrol-1-yl]sulfonyl})azanide] | 1.82
23 | CC(O)c1ccn(S(=O)(=O)NC(=O)Nc2c3c(cc4c2CCC4)CCC3)c1 (stereo not shown) [Example 2A, 3-(1,2,3,5,6,7-hexahydro-s-indacen-4-yl)-1-{[3-(1-hydroxyethyl)-1H-pyrrol-1-yl]sulfonyl}urea] | 1.97
24 | O=C(Nc1c2c(cc3c1CCC3)CCC2)NS(=O)(=O)n1ccc(C(O)C(F)(F)F)c1 (stereo not shown) [Example 2B, 3-(1,2,3,5,6,7-hexahydro-s-indacen-4-yl)-1-{[3-(2,2,2-trifluoro-1-hydroxyethyl)-1H-pyrrol-1-yl]sulfonyl}urea] | 0.98
25 | C=C(C)c1ccn(S(=O)(=O)NC(=O)Nc2c3c(cc4c2CCC4)CCC3)c1 [Example 4A, 3-(1,2,3,5,6,7-hexahydro-s-indacen-4-yl)-1-{[3-(prop-1-en-2-yl)-1H-pyrrol-1-yl]sulfonyl}urea] | 0.81

Reference: patent publication EP3272739A1 (NodThera Limited, priority 2016, dated 2018)
